Here are results for 28 compounds from patent US10266497B2 (ABIDE THERAPEUTICS, INC., priority 2017, dated 2019).

Some results are limits rather than exact numbers.

The target of one test is T1, MAGL (Homo sapiens, UniProt Q99685).
T1 sequence (Q99685 1-303): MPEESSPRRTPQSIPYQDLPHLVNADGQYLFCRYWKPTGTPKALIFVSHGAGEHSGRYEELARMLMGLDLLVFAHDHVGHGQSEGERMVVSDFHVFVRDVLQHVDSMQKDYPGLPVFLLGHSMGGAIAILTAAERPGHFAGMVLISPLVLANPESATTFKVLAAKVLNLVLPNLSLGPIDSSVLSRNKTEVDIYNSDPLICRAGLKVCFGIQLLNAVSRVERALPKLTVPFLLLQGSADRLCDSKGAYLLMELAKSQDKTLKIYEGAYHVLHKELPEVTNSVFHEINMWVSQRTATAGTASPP
The experiment in a line: In vitro competitive activity-based protein profiling, MAGL, human. The note with it: read-out: MAGL % inh. 1 μM (human).
In the case of `O=C(O)c1ccn(C(=O)N2CCC3(CCN(Cc4cccc(Cl)c4)C3)CC2)n1` [Example 227, 1-(2-(3-chlorobenzyl)-2,8-diazaspiro[4.5]decane-8-carbonyl)-1H-pyrazole-3-carboxylic acid], the inhibition at 1 µM is more than 75%.

With `O=C(O)c1ccn(C(=O)N2CCC3(CCN(Cc4cccc(C(F)(F)F)c4Cl)C3)CC2)n1` [Example 339, 1-(2-(2-chloro-3-(trifluoromethyl)benzyl)-2,8-diazaspiro[4.5]decane-8-carbonyl)-1H-pyrazole-3-carboxylic acid], the inhibition at 1 µM was more than 75%.

The test is the same for the next values; noted with them: read-out: MAGL % inh. (human) at 10 uM.
On to `O=C(O)c1ccn(C(=O)N2C[C@H]3C[C@H](NCc4cccc(-c5ccccc5)c4)C[C@H]3C2)n1` [Example 273, 1-(trans-5-(([1,1′-biphenyl]-3-ylmethyl)amino)octahydrocyclopenta [c]pyrrole-2-carbonyl)-1H-pyrazole-3-carboxylic acid], for which the inhibition at 10 µM is more than 75%.

`O=C(O)c1ccn(C(=O)N2C[C@H]3C[C@H](OCc4cccc(-c5cscn5)c4Cl)C[C@H]3C2)n1` [Example 447, 1-(trans-5-((2-chloro-3-(thiazol-4-yl)benzyl)oxy)octa-hydrocyclopenta[c]pyrrole-2-carbonyl)-1H-pyrazole-3-carboxylic acid]: the inhibition at 10 µM is more than 75%.

In the next test the target is T2, MAGL (Mus musculus, UniProt O35678).
T2 sequence (O35678 1-303): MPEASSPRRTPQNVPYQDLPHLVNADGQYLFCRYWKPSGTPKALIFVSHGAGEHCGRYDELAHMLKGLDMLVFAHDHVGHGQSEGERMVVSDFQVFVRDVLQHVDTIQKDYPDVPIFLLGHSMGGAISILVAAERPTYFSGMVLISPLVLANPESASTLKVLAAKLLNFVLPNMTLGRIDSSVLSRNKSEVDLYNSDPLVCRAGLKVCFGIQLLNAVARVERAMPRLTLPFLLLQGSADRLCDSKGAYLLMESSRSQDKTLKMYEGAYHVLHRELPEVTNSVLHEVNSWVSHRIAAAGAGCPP
The experiment in a line: In vitro competitive activity-based protein profiling, MAGL, mouse. As to conditions: read-out: MAGL % inh. 1 μM (mouse).
On to `O=C(O)c1ccn(C(=O)N2CCC3(CCN(Cc4cccc(Cl)c4)C3)CC2)n1` [Example 227, 1-(2-(3-chlorobenzyl)-2,8-diazaspiro[4.5]decane-8-carbonyl)-1H-pyrazole-3-carboxylic acid], for which the inhibition at 1 µM lay in the range of 25 to 50%.

As for `O=C(O)c1ccn(C(=O)N2CCC3(CCN(Cc4cccc(C(F)(F)F)c4Cl)C3)CC2)n1` [Example 339, 1-(2-(2-chloro-3-(trifluoromethyl)benzyl)-2,8-diazaspiro[4.5]decane-8-carbonyl)-1H-pyrazole-3-carboxylic acid], the inhibition at 1 µM was more than 75%.

Turning to `CNC(=O)c1ccn(C(=O)N2CC3CN(Cc4cc(Cl)cc(C(F)(F)F)c4)CC3C2)n1` (stereo not drawn) [Example 437, 1-(5-(3-chloro-5-(trifluoromethyl)benzyl)octahydro-pyrrolo[3,4-c]pyrrole-2-carbonyl)-N-methyl-1H-pyrazole-3-carboxamide], the inhibition at 1 µM was more than 75%.

In the case of `CNC(=O)c1ccn(C(=O)N2CCN(Cc3ccc(Cl)cc3)CC2)n1` [Example 420, 1-(4-(4-chlorobenzyl)piper-azine-1-carbonyl)-N-methyl-1H-pyrazole-3-carboxamide], the inhibition at 1 µM was more than 75%.

For the compound `O=C(O)c1nn(C(=O)N2CCN(Cc3ccc(C(F)(F)F)cc3N3CCCC3)CC2)cc1Cl` [Example 443, 4-chloro-1-(4-(2-(pyrrolidin-1-yl)-4-(trifluoromethyl)benzyl)piperazine-1-carbonyl)-1H-pyrazole-3-carboxylic acid], the inhibition at 1 µM was more than 75%.

As to `CNC(=O)c1ccn(C(=O)N2C[C@H]3C[C@@H](N(C)Cc4ccc(C(F)(F)F)cc4)C[C@H]3C2)n1` [Example 439, N-methyl-1-(cis-5-(methyl(4-(trifluoromethyl)benzyl)amino)octa-hydrocyclopenta[c]pyrrole-2-carbonyl)-1H-pyrazole-3-carboxamide], the inhibition at 1 µM is more than 75%.

With `O=C(O)c1ccn(C(=O)N2CCC3(CCCN3Cc3cc(Cl)cc(N4CCCC4)c3)CC2)n1` [Example 344, 1-(1-(3-chloro-5-(pyrrolidin-1-yl)benzyl)-1,8-diazaspiro[4.5]decane-8-carbonyl)-1H-pyrazole-3-carboxylic acid], the inhibition at 1 µM is more than 75%.

For the compound `Cc1cn(C(=O)N2CCN(Cc3cccc(Oc4ccc(Cl)cc4)c3)C[C@@H]2C)nc1C(=O)O` [Example 442, (S)-1-(4-(3-(4-chlorophenoxy)benzyl)-2-methylpiperazine-1-carbonyl)-4-methyl-1H-pyrazole-3-carboxylic acid], the inhibition at 1 µM is more than 75%.

On to `CNC(=O)c1ccn(C(=O)N2C[C@H]3C[C@@H](N(C)Cc4ccccc4C(F)(F)F)C[C@H]3C2)n1` [Example 434, N-methyl-1-(cis-5-(methyl(2-(trifluoromethyl)benzyl)amino)octa-hydrocyclopenta[c]pyrrole-2-carbonyl)-1H-pyrazole-3-carboxamide], for which the inhibition at 1 µM was more than 75%.

Consider `CC(C)COc1cccc(O[C@H]2C[C@@H]3CN(C(=O)n4ccc(C(=O)O)n4)C[C@@H]3C2)c1Cl` [Example 448, 1-(trans-5-(2-chloro-3-isobutoxyphenoxy)octahydrocyclopenta [c]pyrrole-2-carbonyl)-1H-pyrazole-3-carboxylic acid], for which the inhibition at 1 µM was more than 75%.

In the case of `CNC(=O)c1ccn(C(=O)N2CCN(Cc3cccc(Oc4ccccc4)c3)CC2)n1` [Example 423, N-methyl-1-(4-(3-phenoxybenzyl)piperazine-1-carbonyl)-1H-pyrazole-3-carboxamide], the inhibition at 1 µM is more than 75%.

As for `COc1cccc(O[C@H]2C[C@@H]3CN(C(=O)n4ccc(C(=O)O)n4)C[C@@H]3C2)c1Cl` [Example 445, 1-(trans-5-(2-chloro-3-methoxyphenoxy)octahydrocyclopenta [c]pyrrole-2-carbonyl)-1H-pyrazole-3-carboxylic acid], the inhibition at 1 µM is more than 75%.

For `C[C@H]1CC(N(C)Cc2ccc(C(F)(F)F)cc2N2CCCC2)CCN1C(=O)n1cc(Cl)c(C(=O)O)n1` (stereo partly drawn) [Example 33, 4-Chloro-1-((2S)-2-methyl-4-(methyl(2-(pyrrolidin-1-yl)-4-(trifluoromethyl)benzyl)amino)piperidine-1-carbonyl)-1H-pyrazole-3-carboxylic Acid], the inhibition at 1 µM fell in the range of 50 to 75%.

Regarding `CNC(=O)c1ccn(C(=O)N2CCC3(CCN(Cc4cc(Cl)cc(C(F)(F)F)c4)C3)C2)n1` (stereo not drawn) [Example 435, 1-(7-(3-chloro-5-(trifluoromethyl)benzyl)-2,7-diazaspiro[4.4]non-ane-2-carbonyl)-N-methyl-1H-pyrazole-3-carboxamide], the inhibition at 1 µM is more than 75%.

For `CNC(=O)c1ccn(C(=O)N2CCC3(CCN(Cc4cc(Cl)ccc4Cl)C3)C2)n1` (stereo not drawn) [Example 428, 1-(7-(2,5-dichlorobenzyl)-2,7-diazaspiro[4.4]non-ane-2-carbonyl)-N-methyl-1H-pyrazole-3-carboxamide], the inhibition at 1 µM was more than 75%.

For `CNC(=O)c1ccn(C(=O)N2CC3CN(Cc4ccc(N5CCOCC5)cc4C(F)(F)F)CC3C2)n1` (stereo not drawn) [Example 440, N-methyl-1-(5-(4-morpholino-2-(trifluoromethyl)benzyl)octahydro-pyrrolo[3,4-c]pyrrole-2-carbonyl)-1H-pyrazole-3-carboxamide], the inhibition at 1 µM was more than 75%.

Take `CNC(=O)c1ccn(C(=O)N2CC3CN(Cc4cccc(C(F)(F)F)c4)CC3C2)n1` (stereo not drawn) [Example 432, N-methyl-1-(5-(3-(trifluoromethyl)benzyl)octahydro-pyrrolo[3,4-c]pyrrole-2-carbonyl)-1H-pyrazole-3-carboxamide]: the inhibition at 1 µM was more than 75%.

Regarding `O=C(O)c1ccn(C(=O)N2C[C@H]3C[C@H](Oc4cccc(-c5cscn5)c4Cl)C[C@H]3C2)n1` [Example 446, 1-(trans-5-(2-chloro-3-(thiazol-4-yl)phenoxy)octa-hydrocyclopenta[c]pyrrole-2-carbonyl)-1H-pyrazole-3-carboxylic acid], the inhibition at 1 µM is more than 75%.

For `NC(=O)c1ccn(C(=O)N2CCC3(CCN(Cc4cccc(C(F)(F)F)c4)C3)C2)n1` (stereo not drawn) [Example 429, 1-(7-(3-(trifluoromethyl)benzyl)-2,7-diazaspiro[4.4]non-ane-2-carbonyl)-1H-pyrazole-3-carboxamide], the inhibition at 1 µM was more than 75%.

For the compound `O=C(O)c1nn(C(=O)N2CCN(Cc3cccc(C(F)(F)F)c3N3CCOCC3)CC2)cc1Cl` [Example 449, 4-chloro-1-(4-(2-morpholino-3-(trifluoromethyl)benzyl)piperazine-1-carbonyl)-1H-pyrazole-3-carboxylic acid], the inhibition at 1 µM was more than 75%.

For `NC(=O)c1ccn(C(=O)N2CCC3(CCN(Cc4ccc(Cl)cc4)C3)C2)n1` (stereo not drawn) [Example 421, 1-(7-(4-chlorobenzyl)-2,7-diazaspiro[4.4]non-ane-2-carbonyl)-1H-pyrazole-3-carboxamide], the inhibition at 1 µM is more than 75%.

On to `CNC(=O)c1ccn(C(=O)N2CC3CN(Cc4ccc(C(F)(F)F)cc4)CC3C2)n1` (stereo not drawn) [Example 425, N-methyl-1-(5-(4-(trifluoromethyl)benzyl)octahydro-pyrrolo[3,4-c]pyrrole-2-carbonyl)-1H-pyrazole-3-carboxamide], for which the inhibition at 1 µM was more than 75%.

For the compound `NC(=O)c1ccn(C(=O)N2CCC3(CCN(Cc4ccc(N5CCOCC5)cc4C(F)(F)F)C3)C2)n1` (stereo not drawn) [Example 436, 1-(7-(4-morpholino-2-(trifluoromethyl)benzyl)-2,7-diazaspiro[4.4]non-ane-2-carbonyl)-1H-pyrazole-3-carboxamide], the inhibition at 1 µM is more than 75%.

For the compound `NC(=O)c1ccn(C(=O)N2CCN(Cc3cccc(C4(O)CCOCC4)c3)CC2)n1` [Example 237, 1-(4-(3-(4-hydroxytetrahydro-2H-pyran-4-yl)benzyl)piperazine-1-carbonyl)-1H-pyrazole-3-carboxamide], the inhibition at 1 µM was more than 75%.

For the compound `Cc1cc(CN2CCCC23CCN(C(=O)n2ccc(C(=O)O)n2)CC3)cc(C(F)(F)F)c1` [Example 303, 1-(1-(3-methyl-5-(trifluoromethyl)benzyl)-1,8-diazaspiro[4.5]decane-8-carbonyl)-1H-pyrazole-3-carboxylic acid], the inhibition at 1 µM was more than 75%.

As for `CNC(=O)c1ccn(C(=O)N2CC3CN(Cc4cc(Cl)ccc4Cl)CC3C2)n1` (stereo not drawn) [Example 430, 1-(5-(2,5-dichlorobenzyl)octa-hydropyrrolo[3,4-c]pyrrole-2-carbonyl)-N-methyl-1H-pyrazole-3-carboxamide], the inhibition at 1 µM is more than 75%.
